Experiment: Elimination of Compound A from the eye
Format: in vivo
Settings: intraocular

half-life of elimination from the eye: a few hours
SMILES: Cc1ccoc1C(=O)Nc1cccc(C#Cc2cncc(C(=O)N=[S@](=O)(CCCN3CCN(CCOCCO)CC3)c3ccccc3)c2)c1 [Compound A]

Source: patent US20100278897A1, “INTRAOCULAR BIOACTIVE AGENT DELIVERY SYSTEM WITH MOLECULAR PARTITIONING SYSTEM” (ALLERGAN, INC., priority 2009, published 2010)
